Earlier results on nine molecules are cited in patent publication US11123293B2, “Liposomal formulation for joint lubrication” (MOEBIUS MEDICAL LTD., priority 2017, dated 2021).

Several values for one entry are separate records, joined by “and”; a condition that tells them apart may be missing. Equal values may be shown once. Read-outs that look alike come from different tables or passages of the source.

The conditions of data set [1]: pure phospholipid, literature value.
For another data set, the system named is joints of OA patients. The note with it: injection into joints of OA patients, without major side effects.
A further data set concerns rabbit's knee. The conditions noted are these: solution, intra-articular injection into a rabbit's knee.

For the molecule `CCCCCCCCCCCCCCC(=O)OC[C@H](COP(=O)([O-])OCC[N+](C)(C)C)OC(=O)CCCCCCCCCCCCCC` [1,2-dipentadecanoyl-sn-glycero-3-phosphocholine], in data set [1], the Tm was 33.0 °C.
As to `CCCCCCCCCCCCC/C=C/[C@@H](O)[C@H](COP(=O)([O-])OCC[N+](C)(C)C)NC(=O)CCCCCCCCCCCCCCC` [D-erythro C16, N-palmitoyl-D-erythro-sphingosylphosphorylcholine], the Tm in data set [1] was 41.0 °C; in data set [1] (listed as N-palmitoyl SM), 41 °C.
On to `CCCCCCCCCCCCCC(=O)OC[C@H](COP(=O)([O-])OCC[N+](C)(C)C)OC(=O)CCCCCCCCCCCCC` [DMPC, 1,2-dimyristoyl-sn-glycero-3-phosphocholine], for which the Tm in data set [1] is 23 °C and ~24 °C.
`CCCCCCCCCCCCCC(=O)OC[C@H](COP(=O)(O)OCC(O)CO)OC(=O)CCCCCCCCCCCCC` (some centres unmarked) [DMPG, 1,2-dimyristoyl-sn-glycero-3-phosphorylglycerol]: the Tm in data set [1] was 23 °C.
`CCCCCCCCCCCCCCCC(=O)OC[C@H](COP(=O)([O-])OCC[N+](C)(C)C)OC(=O)CCCCCCCCCCCCCCC` [DPPC, 1,2-dipalmitoyl-sn-glycero-3-phosphocholine]: the Tm in data set [1] was 41 °C and 41.4 °C. Moreover, the mobility improvement lasting entry in the data set with joints of OA patients is “up to 14 weeks”.
`CCCCCCCCCCCCCCCC(=O)OC[C@H](COP(=O)(O)OCC(O)CO)OC(=O)CCCCCCCCCCCCCCC` (some centres unmarked) [DPPG, 1,2-dipalmitoyl-sn-glycero-3-phosphorylglycerol]: the Tm in data set [1] was 41 °C.
Turning to `CCCCCCCCCCCCCCCCCC(=O)OC[C@H](COP(=O)([O-])OCC[N+](C)(C)C)OC(=O)CCCCCCCCCCCCCCCCC` [DSPC, 1,2-distearoyl-sn-glycero-3-phosphocholine], the Tm in data set [1] was 55 °C.
Turning to `OCC(O)CO` [glycerol], the “prevention of joint irritation” value with rabbit's knee was “did not prevent irritation”.
`OC[C@@H](O)[C@@H](O)[C@H](O)[C@H](O)CO` [mannitol]: in the data set with rabbit's knee, the “prevention of joint irritation” value was “did not prevent irritation”.
